This note sets out measurements from ChEMBL document CHEMBL3045002, “3,4-Dihydropyrimidin-2(1H)-one derivatives: Organocatalysed microwave assisted synthesis and evaluation of their antioxidant activity” (Med Chem Res, 2012).

Molecules are shown by their SMILES. Values after ≈ are worked out from the molar mass of the structure shown.

Common to all, as to type: functional
A short description of assay [1]: Antioxidant activity assessed as DPPH scavenging activity after 2 hr by spectrophotometry.
Assay [2] can be described thus: Antioxidant activity in phosphate buffer at pH 6.6 assessed as reducing power measuring conversion of potassium ferricyanide to ferrous form after 10 min by spectrophotometry.
The nature of assay [3]: Antioxidant activity assessed as Fe2+ chelating activity after 10 min by spectrophotometry.

On to `CCOC(=O)C1=C(C)NC(=O)NC1c1cccc([N+](=O)[O-])c1` (stereo not drawn), for which, in assay [1], the half-maximal inhibitory concentration (IC50) is 27.73 µg/mL (≈ 90.8 µM). In addition, the EC50 came to 339.06 µg/mL (≈ 1110 µM) in assay [2] and 1.16 µg/mL (≈ 3.8 µM) in assay [3].
Consider `COC(=O)C1=C(C)NC(=O)NC1c1cccc([N+](=O)[O-])c1` (stereo not drawn), for which the IC50 in assay [1] was determined as 27.08 µg/mL (≈ 93 µM). Also, the values for the 50% effective concentration (EC50) in assay [2] and in assay [3] were 126.35 µg/mL (≈ 434 µM) and 1.6 µg/mL (≈ 5.49 µM), respectively.
Regarding `Oc1cc(O)c2c(c1)OC(c1ccc(O)c(O)c1)C(O)C2` (stereo not drawn) [CATECHIN], the IC50 in assay [1] was determined as 2.12 µg/mL (≈ 7.3 µM). Also, the concentration for a half-maximal effect (EC50) in assay [2] worked out at 10 µg/mL (≈ 34.5 µM).
Take `CCOC(=O)C1=C(C)NC(=O)NC1c1ccc(O)c(OC)c1` (stereo not drawn): the IC50 in assay [1] was 3.65 µg/mL (≈ 11.9 µM). Besides, the EC50 in assay [2] turned out to be 49.38 µg/mL (≈ 161 µM); in assay [3], 0.88 µg/mL (≈ 2.87 µM).
As for `CCOC(=O)C1=C(C)NC(=O)NC1c1ccc([N+](=O)[O-])cc1` (stereo not drawn), the IC50 in assay [1] worked out at 33.29 µg/mL (≈ 109 µM). Moreover, the EC50 in assay [2] turned out to be 238.09 µg/mL (≈ 780 µM); in assay [3] it was 1.86 µg/mL (≈ 6.09 µM).
Taken in the same sequence, the figures for `CCOC(=O)C1=C(C)NC(=O)NC1c1ccc(O)cc1` (stereo not drawn) were 2.71 µg/mL (≈ 9.81 µM), 61.4 µg/mL (≈ 222 µM) and 0.89 µg/mL (≈ 3.22 µM).
Regarding `O=C(O)CC(O)(CC(=O)O)C(=O)O` [CITRIC ACID], the EC50 in assay [3] came out at 0.074 µg/mL (≈ 0.385 µM).
In the case of `CCOC(=O)C1=C(C)NC(=O)NC1c1ccc(OC)cc1` (stereo not drawn), the IC50 in assay [1] is 48.45 µg/mL (≈ 167 µM). For the same compound, the EC50 came out at 171.12 µg/mL (≈ 589 µM) in assay [2] and 1.55 µg/mL (≈ 5.34 µM) in assay [3].
Taken in the same sequence, the figures for `COC(=O)C1=C(C)NC(=O)NC1c1ccc([N+](=O)[O-])cc1` (stereo not drawn) were 27.78 µg/mL (≈ 95.4 µM), 170.02 µg/mL (≈ 584 µM) and 1.71 µg/mL (≈ 5.87 µM).
Taken in the same sequence, the figures for `COC(=O)C1=C(C)NC(=O)NC1c1ccc(O)cc1` (stereo not drawn) were 3.14 µg/mL (≈ 12 µM), 67 µg/mL (≈ 255 µM) and 0.79 µg/mL (≈ 3.01 µM).
Consider `O=C(O)c1cc(O)c(O)c(O)c1` [GALLIC ACID], for which, in assay [1], the concentration for half-maximal inhibition (IC50) was 2.06 µg/mL (≈ 12.1 µM). Further, in assay [2], the EC50 came out at 5.25 µg/mL (≈ 30.9 µM).
Consider `COC(=O)C1=C(C)NC(=O)NC1c1ccc(O)c(OC)c1` (stereo not drawn), for which the IC50 in assay [1] came to 5.02 µg/mL (≈ 17.2 µM). Besides, the figures for the EC50 in assay [2] and in assay [3] were 57.14 µg/mL (≈ 195 µM) and 0.9 µg/mL (≈ 3.08 µM), respectively.
Taken in the same sequence, the figures for `COC(=O)C1=C(C)NC(=O)NC1c1ccccc1` (stereo not drawn) were 28.43 µg/mL (≈ 115 µM), 97.56 µg/mL (≈ 396 µM) and 2.23 µg/mL (≈ 9.06 µM).
For the compound `COC(=O)C1=C(C)NC(=O)NC1c1ccc(OC)cc1` (stereo not drawn), the IC50 in assay [1] is 31.69 µg/mL (≈ 115 µM). For the same compound, the EC50 in assay [2] is 206 µg/mL (≈ 746 µM); in assay [3], 1.92 µg/mL (≈ 6.95 µM).
As for `CCOC(=O)C1=C(C)NC(=O)NC1c1ccccc1` (stereo not drawn), the IC50 in assay [1] was determined as 25.04 µg/mL (≈ 96.2 µM). For the same compound, the EC50 came out at 158.9 µg/mL (≈ 610 µM) in assay [2] and 1.04 µg/mL (≈ 4 µM) in assay [3].
For the compound `Cc1cc(C(C)(C)C)c(O)c(C(C)(C)C)c1` [BUTYLATED HYDROXYTOLUENE], the IC50 in assay [1] was 2.18 µg/mL (≈ 9.89 µM). For the same compound, the EC50 in assay [2] was found to be 20 µg/mL (≈ 90.8 µM).
